Measured values taken from publication PMC9325670, “Limited nutrient availability in the tumor microenvironment renders pancreatic tumors sensitive to allosteric IDH1 inhibitors” (Nature Cancer, 2022).

Target: T1, wild-type isocitrate dehydrogenase 1 (wtIDH1) (Homo sapiens, UniProt O75874)
T1 construct: gene IDH1; human recombinant IDH1
Assay: cell-free fluorometric NADPH formation assay at […] Mg2+
Format: biochemical

T1 sequence (O75874 2-414): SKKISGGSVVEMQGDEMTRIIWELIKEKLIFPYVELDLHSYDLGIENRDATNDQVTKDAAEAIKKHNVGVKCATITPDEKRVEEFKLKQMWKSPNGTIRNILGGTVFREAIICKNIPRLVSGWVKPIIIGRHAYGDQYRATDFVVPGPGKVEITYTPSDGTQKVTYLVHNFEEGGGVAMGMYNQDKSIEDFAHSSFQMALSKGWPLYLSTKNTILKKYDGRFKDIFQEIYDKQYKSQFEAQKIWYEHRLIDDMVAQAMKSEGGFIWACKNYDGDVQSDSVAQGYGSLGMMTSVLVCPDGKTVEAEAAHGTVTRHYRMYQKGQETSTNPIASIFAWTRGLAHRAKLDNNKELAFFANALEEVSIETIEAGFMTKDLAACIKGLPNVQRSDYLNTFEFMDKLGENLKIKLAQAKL

IC50: 91.4 nM
SMILES: CC1(C)CN(C(=O)c2cn[nH]c2)Cc2c(C(=O)Nc3ccc(F)cc3)nn(Cc3ccc(C(F)(F)F)cc3)c21 [FSM-3-002]
